# Assay results reported in patent publication US10508120B2, “TYK2 inhibitors and uses thereof” (Nimbus Lakshmi, Inc., priority 2017, dated 2019).
# Assays:
# [1] = target: human TYK2 (JH2domain-pseudokinase) (Homo sapiens (Human), UniProt P29597); experiment: TYK2 JH2 Domain Binding Assay (KINOMEscan)
# Summary of the method: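 Displacement of a DNA-tagged TYK2 JH2 fusion (human, aa G556–D888, HEK293 extract, <0.1 nM) from ligand-coated beads over 1 h at RT; binding buffer PBS/0.05% Tween 20/10 mM DTT/0.1% BSA.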
# [2] = target: JAK2 kinase domain (JH1) (Homo sapiens (Human), UniProt O60674); experiment: JAK2 Radioactive Kinase Assay; type: biochemical; settings: compound at 10 μM, ATP 10 μM; for inhibition at 10 µM: read-out: JAK2 JH1% Inhibition @ 10 μM
# Summary of the method: (§1)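 Compounds were tested at a single concentration of 10 μM in a radiometric kinase format against each isolated kinase domain. Activity is reported as percent inhibition at that concentration.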
# [3] = target: Tyk2 kinase domain (DH1) (Homo sapiens (Human), UniProt P29597); experiment: Tyk2 Radioactive Kinase Assay; type: biochemical; settings: compound at 10 μM, ATP 10 μM; for inhibition at 10 µM: read-out: Tyk2 JH1% Inhibition @ 10 μM
# Summary of the method: as §1
# Sequence of JAK2 kinase domain (JH1) (O60674 849-1124): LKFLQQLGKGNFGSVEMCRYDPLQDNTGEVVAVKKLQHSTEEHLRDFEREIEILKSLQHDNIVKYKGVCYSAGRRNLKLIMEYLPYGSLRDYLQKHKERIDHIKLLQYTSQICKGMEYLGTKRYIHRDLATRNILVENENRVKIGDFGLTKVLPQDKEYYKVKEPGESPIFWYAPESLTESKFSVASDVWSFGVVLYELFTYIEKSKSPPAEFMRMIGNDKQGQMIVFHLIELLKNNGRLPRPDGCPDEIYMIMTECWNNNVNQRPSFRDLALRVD
# Sequence of Tyk2 kinase domain (DH1) (P29597 897-1176): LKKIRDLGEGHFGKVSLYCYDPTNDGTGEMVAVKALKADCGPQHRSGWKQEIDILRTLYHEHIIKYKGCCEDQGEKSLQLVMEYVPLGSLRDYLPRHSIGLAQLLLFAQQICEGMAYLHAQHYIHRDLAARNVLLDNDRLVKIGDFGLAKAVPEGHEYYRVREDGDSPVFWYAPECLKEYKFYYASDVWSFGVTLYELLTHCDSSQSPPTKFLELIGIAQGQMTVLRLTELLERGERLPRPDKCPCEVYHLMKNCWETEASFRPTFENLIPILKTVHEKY
# Sequence of human TYK2 (JH2domain-pseudokinase) (P29597 556-888): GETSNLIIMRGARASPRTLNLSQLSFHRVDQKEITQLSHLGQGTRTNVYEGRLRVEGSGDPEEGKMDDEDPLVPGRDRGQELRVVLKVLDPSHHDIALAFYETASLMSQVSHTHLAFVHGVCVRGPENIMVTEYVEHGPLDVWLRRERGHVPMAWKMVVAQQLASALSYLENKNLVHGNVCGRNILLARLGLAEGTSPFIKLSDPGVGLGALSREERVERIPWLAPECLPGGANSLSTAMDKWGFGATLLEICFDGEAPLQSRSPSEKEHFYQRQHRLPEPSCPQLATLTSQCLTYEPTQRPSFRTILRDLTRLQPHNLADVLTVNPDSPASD
SMILES,Kd [1] [nM],inhibition at 10 µM [2] [%],inhibition at 10 µM [3] [%],JAK2 JH1% Inhibition @ 10 μM [2],Tyk2 JH1% Inhibition @ 10 μM [3]
CNc1cc(Nc2cccn(C3CCN(C)CC3)c2=O)nc2c(C(=O)N[C@H]3C[C@H]3F)cnn12 [I-349],< 0.2,< 50,< 50,,
CNc1cc(Nc2cccn([C@@H]3CCCOC3)c2=O)nc2c(C(=O)NC3CCC3)cnn12 [I-353],< 0.2,< 50,< 50,,
CNc1cc(Nc2cccnc2C(C)(F)F)nc2c(C(=O)NCC(C)(C)CO)cnn12 [I-355],0.2 to 1,< 50,< 50,,
CNc1cc(Nc2cccn([C@H]3CC[C@@H](OC)CC3)c2=O)nc2c(C(=O)NC3CC3)cnn12 [I-356],< 0.2,< 50,< 50,,
CNc1cc(Nc2cccn([C@H]3CC[C@@H](OC)CC3)c2=O)nc2c(C(=O)NC3CCC3)cnn12 [I-358],< 0.2,< 50,< 50,,
CNc1cc(Nc2cccn([C@H]3CC[C@](C)(OC)CC3)c2=O)nc2c(C(=O)NC3CC3)cnn12 [I-361],< 0.2,< 50,< 50,,
CNc1cc(Nc2cccn(CC3CCCCO3)c2=O)nc2c(C(=O)NC3CC3)cnn12 (stereo not drawn) [I-364],< 0.2,< 50,< 50,,
CNc1cc(Nc2cccnc2OC2CN(CC(F)(F)F)C2)nc2c(C(=O)NC3CC3)cnn12 [I-367],0.2 to 1,< 50,< 50,,
CNc1cc(Nc2cccc(N3CCCC3)n2)nc2c(C(=O)N[C@H]3C[C@H]3F)cnn12 [I-383],0.2 to 1,< 50,< 50,,
"COc1ncccc1Nc1cc(NCCN2CCOCC2)n2ncc(C(=O)NC3CC3)c2n1 [I-387, N-cyclopropyl-5-((2-methoxypyridin-3-yl)amino)-7-((2-morpholinoethyl)amino)pyrazolo[1,5-a]pyrimidine-3-carboxamide]",1 to 10,< 50,< 50,,
CNc1cc(Nc2cccn(C(C)C)c2=O)nc2c(C(=O)NC3CC3)cnn12 [I-394],0.2 to 1,< 50,< 50,,
CNc1cc(Nc2cccnc2OC2CC2)nc2c(C(=O)N[C@@H]3CC[C@H]3O)cnn12 [I-398],0.2 to 1,< 50,< 50,,
CNc1cc(Nc2cccn([C@H]3CCC[C@@H]3OC)c2=O)nc2c(C(=O)NC3CC3)cnn12 [I-403],0.2 to 1,< 50,< 50,,
CNc1cc(Nc2cccn([C@H]3CC[C@@](C)(O)CC3)c2=O)nc2c(C(=O)NC3CC3)cnn12 [I-414],0.2 to 1,< 50,< 50,,
CNc1cc(Nc2cc(F)cn(-c3nn(C)cc3C)c2=O)nc2c(C(=O)N[C@@H]3C[C@@H]3F)cnn12 [I-416],> 10,< 50,< 50,,
"CNc1cc(Nc2cccnc2OC2CC2)nc2c(C(=O)NCCC(C)(C)O)cnn12 [I-422, 5-((2-cyclopropoxypyridin-3-yl)amino)-N-(3-hydroxy-3-methylbutyl)-7-(methylamino)pyrazolo[1,5-a]pyrimidine-3-carboxamide]",1 to 10,< 50,< 50,,
CNc1cc(Nc2cccnc2OC)nc2c(C(=O)N[C@@H]3CC[C@@H]3O)cnn12 [I-430],0.2 to 1,< 50,< 50,,
CNc1cc(Nc2cc(F)cn(-c3nn(C)cc3C)c2=O)nc2c(C(=O)NC3CC3)cnn12 [I-431],> 10,< 50,< 50,,
CNc1cc(-c2nn(C(C)C)c3ncccc23)nc2c(C(=O)NC3CC3)cnn12 [I-440],0.2 to 1,< 50,< 50,,
CNc1cc(-c2nn(C3CCOCC3)c3ncccc23)nc2c(C(=O)NC3CC3)cnn12 [I-441],0.2 to 1,< 50,< 50,,
CNc1cc(-c2nn(C3CCOC3)c3ncccc23)nc2c(C(=O)NC3CC3)cnn12 (stereo not drawn) [I-443],0.2 to 1,< 50,< 50,,
CNc1cc(Nc2cccn(-c3cnn(CC4CCOC4)c3)c2=O)nc2c(C(=O)NC3CC3)cnn12 (stereo not drawn) [I-444],< 0.2,< 50,< 50,,
"CNc1cc(Nc2cccnc2OC)nc2c(C(=O)N[C@H]3[C@@H]4COC[C@@H]43)cnn12 [I-445, N-((1R,5S,6r)-3-oxabicyclo[3.1.0]hexan-6-yl)-5-((2-methoxypyridin-3-yl)amino)-7-(methylamino)pyrazolo[1,5-a]pyrimidine-3-carboxamide]",0.2 to 1,< 50,< 50,,
CNc1cc(Nc2cccnc2OC2CC2)nc2c(C(=O)N[C@H]3[C@@H]4COC[C@@H]43)cnn12 [I-446],0.2 to 1,< 50,< 50,,

# Further lines, with some results ahead:
Kd [1] [nM],inhibition at 10 µM [2] [%],inhibition at 10 µM [3] [%],SMILES,JAK2 JH1% Inhibition @ 10 μM [2],Tyk2 JH1% Inhibition @ 10 μM [3]
0.2 to 1,< 50,< 50,"COc1ncccc1Nc1cc(NCCCN2CCOCC2)n2ncc(C(=O)NC3CC3)c2n1 [I-376, N-cyclopropyl-5-((2-methoxypyridin-3-yl)amino)-7-((3-morpholinopropyl)amino)pyrazolo[1,5-a]pyrimidine-3-carboxamide]",,
0.2 to 1,< 50,< 50,CNc1cc(Nc2cccc(N3CCCC3)n2)nc2c(C(=O)NC3CC3)cnn12 [I-382],,
< 0.2,< 50,< 50,CNc1cc(Nc2cccn(-c3ccc(C4CCN(C)CC4)cc3)c2=O)nc2c(C(=O)N[C@H]3C[C@H]3F)cnn12 [I-389],,
0.2 to 1,< 50,< 50,CNc1cc(Nc2cccnc2OC2CC2)nc2c(C(=O)N[C@H]3CC[C@H]3O)cnn12 [I-402],,
0.2 to 1,< 50,< 50,CNc1cc(Nc2cccn(C[C@H]3CCCCO3)c2=O)nc2c(C(=O)NC3CC3)cnn12 [I-412],,
1 to 10,< 50,< 50,"CNc1cc(Nc2cccnc2OC)nc2c(C(=O)NCCC3CCCO3)cnn12 (stereo not drawn) [I-418, 5-((2-methoxypyridin-3-yl)amino)-7-(methylamino)-N-(2-(tetrahydrofuran-2-yl)ethyl)pyrazolo[1,5-a]pyrimidine-3-carboxamide]",,
1 to 10,< 50,< 50,"[2H]C([2H])([2H])Oc1ncccc1Nc1cc(NC)n2ncc(C(=O)NCCC3CCCO3)c2n1 (stereo not drawn) [I-419, 5-((2-(methoxy-d3)pyridin-3-yl)amino)-7-(methylamino)-N-(2-(tetrahydrofuran-2-yl)ethyl)pyrazolo[1,5-a]pyrimidine-3-carboxamide]",,
0.2 to 1,< 50,< 50,"CNc1cc(Nc2cccnc2OC)nc2c(C(=O)NCCC(C)(C)O)cnn12 [I-420, N-(3-hydroxy-3-methylbutyl)-5-((2-methoxypyridin-3-yl)amino)-7-(methylamino)pyrazolo[1,5-a]pyrimidine-3-carboxamide]",,
0.2 to 1,< 50,< 50,"[2H]C([2H])([2H])Oc1ncccc1Nc1cc(NC)n2ncc(C(=O)NCCC(C)(C)O)c2n1 [I-421, N-(3-hydroxy-3-methylbutyl)-5-((2-(methoxy-d3)pyridin-3-yl)amino)-7-(methylamino)pyrazolo[1,5-a]pyrimidine-3-carboxamide]",,
0.2 to 1,< 50,< 50,CNc1cc(Nc2cccn(C[C@H]3CCCCO3)c2=O)nc2c(C(=O)N[C@@H]3C[C@@H]3F)cnn12 [I-427],,
< 0.2,< 50,< 50,"CNc1cc(Nc2cccc(C3CCCCO3)n2)nc2c(C(=O)NC3CC3)cnn12 (stereo not drawn) [I-432, N-cyclopropyl-7-(methylamino)-5-((6-(tetrahydro-2H-pyran-2-yl)pyridin-2-yl)amino)pyrazolo[1,5-a]pyrimidine-3-carboxamide]",,
< 0.2,< 50,< 50,"CNc1cc(Nc2cccnc2OC)nc2c(C(=O)NCC(C)CO)cnn12 (stereo not drawn) [I-434, N-(3-hydroxy-2-methylpropyl)-5-((2-methoxypyridin-3-yl)amino)-7-(methylamino)pyrazolo[1,5-a]pyrimidine-3-carboxamide]",,
0.2 to 1,,,CNc1cc(Nc2cccn([C@H]3CCC[C@@H]3OC)c2=O)nc2c(C(=O)NC3CC3)cnn12 [I-436],A (percent inhibition at 10 μM lower than 50),A (percent inhibition at 10 μM lower than 50)
0.2 to 1,,,CNc1cc(Nc2cccn([C@H]3CCC[C@@H]3OC)c2=O)nc2c(C(=O)NC3CC3)cnn12 [I-437],A (percent inhibition at 10 μM lower than 50),A (percent inhibition at 10 μM lower than 50)
0.2 to 1,< 50,< 50,"CNc1cc(Nc2cccnc2OC2CC2)nc2c(C(=O)N[C@H]3C[C@@H]3O)cnn12 [I-439, 5-((2-cyclopropoxypyridin-3-yl)amino)-N-((1S,2S)-2-hydroxycyclopropyl)-7-(methylamino)pyrazolo[1,5-a]pyrimidine-3-carboxamide]",,
0.2 to 1,< 50,< 50,CNc1cc(Nc2cccn([C@H]3CCC[C@@H]3OC)c2=O)nc2c(C(=O)N[C@@H]3C[C@@H]3F)cnn12 [I-442],,
